What is called IC50 is the midpoint of a concentration-inhibition curve. Low values mean greater potency in that assay, high ones weaker potency in that assay.

Here are results for 2 compounds from publication PMC6111308, “Antimycobacterial, Enzyme Inhibition, and Molecular Interaction Studies of Psoromic Acid in Mycobacterium tuberculosis: Efficacy and Safety Investigations” (Journal of Clinical Medicine, 2018).

The assay has as its target T1, arylamine-N-acetyltransferase (TBNAT) (Mycobacterium tuberculosis, UniProt P9WJI5).
T1 construct: gene nat
T1 sequence (P9WJI5 1-283): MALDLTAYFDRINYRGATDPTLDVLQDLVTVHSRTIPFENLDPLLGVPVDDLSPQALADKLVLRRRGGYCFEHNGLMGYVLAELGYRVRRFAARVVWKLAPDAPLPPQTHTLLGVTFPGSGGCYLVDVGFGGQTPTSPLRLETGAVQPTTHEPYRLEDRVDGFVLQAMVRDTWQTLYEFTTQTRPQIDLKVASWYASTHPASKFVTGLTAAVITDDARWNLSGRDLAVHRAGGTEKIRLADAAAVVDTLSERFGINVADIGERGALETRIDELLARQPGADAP
Description: biochemical.

`COc1cc(C(=O)O)c2c(c1C)OC(=O)c1c(C)cc(O)c(C=O)c1O2` [PA, psoromic acid] showed an IC50 of 8.7 µM. That is a single-digit micromolar value.

Regarding `NNC(=O)c1ccncc1` [INH, isoniazid], the IC50 was found to be 6.2 µM.
